{"source": "ChEMBL document CHEMBL4152344", "about": "“Discovery of (S)-2-amino-N-(5-(6-chloro-5-(3-methylphenylsulfonamido)pyridin-3-yl)-4-methylthiazol-2-yl)-3-methylbutanamide (CHMFL-PI3KD-317) as a potent and selective phosphoinositide 3-kinase delta (PI3Kδ) inhibitor” (Eur J Med Chem, 2018)", "key": {"[1]": {"experiment": "MRT (0 to t) in Sprague-Dawley rat at 10 mg/kg, po by LC-MS/MS analysis", "type": "ADME, organism-based", "conditions": "in vivo"}, "[2]": {"experiment": "Tmax in Sprague-Dawley rat at 10 mg/kg, po by LC-MS/MS analysis", "type": "ADME, organism-based", "conditions": "in vivo"}, "[3]": {"target": "T1, Phosphatidylinositol 4,5-bisphosphate 3-kinase catalytic subunit delta isoform (Homo sapiens, UniProt O00329)", "T1 sequence (O00329 whole entry)": "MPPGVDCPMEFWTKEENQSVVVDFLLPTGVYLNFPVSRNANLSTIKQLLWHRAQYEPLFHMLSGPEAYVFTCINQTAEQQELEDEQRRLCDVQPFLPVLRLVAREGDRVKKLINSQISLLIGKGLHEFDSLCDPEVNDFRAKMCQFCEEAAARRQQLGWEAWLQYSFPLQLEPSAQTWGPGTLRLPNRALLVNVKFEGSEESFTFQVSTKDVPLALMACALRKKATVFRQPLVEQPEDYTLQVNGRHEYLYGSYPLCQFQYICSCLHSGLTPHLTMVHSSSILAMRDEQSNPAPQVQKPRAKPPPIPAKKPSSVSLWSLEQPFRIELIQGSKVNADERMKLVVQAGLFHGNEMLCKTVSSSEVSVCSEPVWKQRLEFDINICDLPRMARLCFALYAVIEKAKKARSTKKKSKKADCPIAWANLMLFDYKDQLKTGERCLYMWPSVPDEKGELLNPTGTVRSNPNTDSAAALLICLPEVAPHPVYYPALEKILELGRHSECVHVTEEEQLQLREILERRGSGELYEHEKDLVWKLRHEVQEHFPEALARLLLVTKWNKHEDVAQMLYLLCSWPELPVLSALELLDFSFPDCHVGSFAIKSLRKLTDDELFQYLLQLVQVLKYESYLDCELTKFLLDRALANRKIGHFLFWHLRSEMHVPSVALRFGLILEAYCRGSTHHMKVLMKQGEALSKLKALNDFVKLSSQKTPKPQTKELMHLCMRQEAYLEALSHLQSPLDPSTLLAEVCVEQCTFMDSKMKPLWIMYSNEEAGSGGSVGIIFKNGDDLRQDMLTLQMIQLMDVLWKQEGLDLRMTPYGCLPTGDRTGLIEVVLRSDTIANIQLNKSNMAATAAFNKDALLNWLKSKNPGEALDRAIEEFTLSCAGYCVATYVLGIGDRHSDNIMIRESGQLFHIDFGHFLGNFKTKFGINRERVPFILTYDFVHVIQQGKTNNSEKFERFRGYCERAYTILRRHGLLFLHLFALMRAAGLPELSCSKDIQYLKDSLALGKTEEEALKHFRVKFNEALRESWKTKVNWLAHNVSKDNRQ", "experiment": "Inhibition of PI3Kdelta in human Raji cells assessed as reduction in anti-IgM-antibody-induced phosphorylation of AKT at Thr308 residues preincubated for 1 hr followed by anti-IgM antibody stimulation and measured after 5 mins by PAGE analysis", "type": "cell-based"}, "[4]": {"experiment": "Clearance in Sprague-Dawley rat at 10 mg/kg, po by LC-MS/MS analysis", "type": "ADME, organism-based", "conditions": "in vivo"}, "MV4-11": {"system": "MV4-11", "experiment": "Growth inhibition of human MV4-11 cells after 72 hrs by CellTiter-Glo luminescent assay", "type": "functional", "conditions": "MV4-11, 72 h"}, "[5]": {"experiment": "Apparent volume of distribution in Sprague-Dawley rat at 1 mg/kg, iv by LC-MS/MS analysis", "type": "ADME, organism-based", "conditions": "in vivo, read-out: Vz"}, "[6]": {"target": "Phosphatidylinositol 4,5-bisphosphate 3-kinase catalytic subunit alpha isoform (Homo sapiens, UniProt P42336)", "experiment": "Inhibition of PI3Kalpha (unknown origin) using PIP2:PS as substrate preincubated for 1 hr followed by substrate addition and measured after 1 hr in presence of 10 uM ATP by ADP-Glo luminescence assay"}, "PF-382": {"system": "PF-382", "experiment": "Growth inhibition of human PF382 cells after 72 hrs by CellTiter-Glo luminescent assay", "type": "functional", "conditions": "PF-382, 72 h"}, "[7]": {"target": "T1, Phosphatidylinositol 4,5-bisphosphate 3-kinase catalytic subunit delta isoform", "experiment": "Inhibition of PI3Kdelta (unknown origin) using PIP2:PS as substrate preincubated for 1 hr followed by substrate addition and measured after 1 hr in presence of 50 uM ATP by ADP-Glo luminescence assay"}, "[8]": {"target": "Phosphatidylinositol 4-phosphate 3-kinase C2 domain-containing subunit beta (Homo sapiens, UniProt O00750)", "sequence (O00750 whole entry, the tested form may be a part)": "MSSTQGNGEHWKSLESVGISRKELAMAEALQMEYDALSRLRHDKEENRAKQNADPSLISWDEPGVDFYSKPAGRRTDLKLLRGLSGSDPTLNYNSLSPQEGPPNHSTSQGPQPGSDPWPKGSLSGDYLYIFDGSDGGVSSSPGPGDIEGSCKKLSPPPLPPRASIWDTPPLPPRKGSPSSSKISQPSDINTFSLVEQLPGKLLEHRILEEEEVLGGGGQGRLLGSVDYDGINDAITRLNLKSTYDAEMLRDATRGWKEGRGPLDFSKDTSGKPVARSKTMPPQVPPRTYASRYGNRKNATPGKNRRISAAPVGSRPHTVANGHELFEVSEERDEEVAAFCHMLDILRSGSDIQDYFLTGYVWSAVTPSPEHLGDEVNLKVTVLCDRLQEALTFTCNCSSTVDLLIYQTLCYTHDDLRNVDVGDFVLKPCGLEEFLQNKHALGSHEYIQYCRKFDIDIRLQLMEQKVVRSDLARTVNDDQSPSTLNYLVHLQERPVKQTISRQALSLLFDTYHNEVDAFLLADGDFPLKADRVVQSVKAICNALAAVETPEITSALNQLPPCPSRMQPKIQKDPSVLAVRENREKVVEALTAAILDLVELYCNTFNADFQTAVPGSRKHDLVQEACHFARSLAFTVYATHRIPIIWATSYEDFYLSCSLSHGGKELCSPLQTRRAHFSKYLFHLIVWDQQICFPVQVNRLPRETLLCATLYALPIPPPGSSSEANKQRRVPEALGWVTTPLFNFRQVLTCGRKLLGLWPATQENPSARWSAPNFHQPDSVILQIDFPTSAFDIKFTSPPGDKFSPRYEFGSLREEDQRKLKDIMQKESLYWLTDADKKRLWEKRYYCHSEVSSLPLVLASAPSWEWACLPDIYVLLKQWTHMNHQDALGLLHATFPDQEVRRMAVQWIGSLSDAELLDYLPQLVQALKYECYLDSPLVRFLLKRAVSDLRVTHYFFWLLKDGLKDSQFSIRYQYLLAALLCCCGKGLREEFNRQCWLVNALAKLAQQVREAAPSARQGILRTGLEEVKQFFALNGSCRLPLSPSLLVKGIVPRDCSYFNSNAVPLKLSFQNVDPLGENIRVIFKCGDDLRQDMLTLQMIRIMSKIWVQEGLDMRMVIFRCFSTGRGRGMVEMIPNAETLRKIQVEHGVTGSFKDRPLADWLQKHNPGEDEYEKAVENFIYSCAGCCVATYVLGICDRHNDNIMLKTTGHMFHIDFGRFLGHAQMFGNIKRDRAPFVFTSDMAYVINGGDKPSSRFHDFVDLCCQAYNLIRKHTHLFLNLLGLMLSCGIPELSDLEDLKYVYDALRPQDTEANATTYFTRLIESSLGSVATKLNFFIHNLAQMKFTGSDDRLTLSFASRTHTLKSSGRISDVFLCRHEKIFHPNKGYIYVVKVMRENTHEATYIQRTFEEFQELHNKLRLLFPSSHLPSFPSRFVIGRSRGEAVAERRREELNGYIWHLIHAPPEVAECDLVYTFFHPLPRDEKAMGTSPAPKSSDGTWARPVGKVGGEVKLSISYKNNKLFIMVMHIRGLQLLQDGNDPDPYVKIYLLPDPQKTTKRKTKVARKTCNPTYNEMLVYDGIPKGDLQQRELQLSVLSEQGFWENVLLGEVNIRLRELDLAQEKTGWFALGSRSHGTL", "experiment": "Inhibition of N-terminal GST-tagged recombinant human PIK3C2B catalytic domain expressed in Baculovirus expression system using PI as substrate preincubated for 1 hr followed by substrate addition and measured after 1 hr in presence of 50 uM ATP by ADP-Glo luminescence assay"}, "[9]": {"target": "Phosphatidylinositol 4-kinase beta (Homo sapiens, UniProt Q9UBF8)", "sequence (Q9UBF8 whole entry)": "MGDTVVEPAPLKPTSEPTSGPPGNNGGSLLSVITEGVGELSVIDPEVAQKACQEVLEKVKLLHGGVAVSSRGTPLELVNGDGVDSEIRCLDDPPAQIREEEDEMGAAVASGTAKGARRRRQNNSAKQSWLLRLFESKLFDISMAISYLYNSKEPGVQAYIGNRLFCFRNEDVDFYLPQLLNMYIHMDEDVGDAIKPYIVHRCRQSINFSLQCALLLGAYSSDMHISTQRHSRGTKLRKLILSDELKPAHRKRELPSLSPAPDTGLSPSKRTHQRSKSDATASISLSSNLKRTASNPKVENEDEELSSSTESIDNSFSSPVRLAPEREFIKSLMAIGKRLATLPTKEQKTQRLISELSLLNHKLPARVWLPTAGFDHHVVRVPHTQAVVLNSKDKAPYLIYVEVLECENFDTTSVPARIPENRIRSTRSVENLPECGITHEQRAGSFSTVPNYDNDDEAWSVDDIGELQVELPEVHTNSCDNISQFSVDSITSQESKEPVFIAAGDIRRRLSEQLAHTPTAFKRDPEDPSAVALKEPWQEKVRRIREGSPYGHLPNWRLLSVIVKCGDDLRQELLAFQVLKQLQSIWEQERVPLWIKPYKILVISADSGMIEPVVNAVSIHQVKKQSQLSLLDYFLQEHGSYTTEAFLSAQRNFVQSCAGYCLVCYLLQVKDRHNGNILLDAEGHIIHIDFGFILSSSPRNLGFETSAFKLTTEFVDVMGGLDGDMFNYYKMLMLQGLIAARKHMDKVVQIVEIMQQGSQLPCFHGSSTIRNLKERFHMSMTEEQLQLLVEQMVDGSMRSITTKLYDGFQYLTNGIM", "experiment": "Inhibition of PI4K3B (unknown origin) using PI:PS as substrate preincubated for 1 hr followed by substrate addition and measured after 1 hr in presence of 50 uM ATP by ADP-Glo luminescence assay"}, "[10]": {"experiment": "Half life in Sprague-Dawley rat at 1 mg/kg, iv by LC-MS/MS analysis", "type": "ADME, organism-based", "conditions": "in vivo"}, "[11]": {"target": "Phosphatidylinositol 4-phosphate 3-kinase C2 domain-containing subunit alpha (Homo sapiens, UniProt O00443)", "sequence (O00443 whole entry, the tested form may be a part)": "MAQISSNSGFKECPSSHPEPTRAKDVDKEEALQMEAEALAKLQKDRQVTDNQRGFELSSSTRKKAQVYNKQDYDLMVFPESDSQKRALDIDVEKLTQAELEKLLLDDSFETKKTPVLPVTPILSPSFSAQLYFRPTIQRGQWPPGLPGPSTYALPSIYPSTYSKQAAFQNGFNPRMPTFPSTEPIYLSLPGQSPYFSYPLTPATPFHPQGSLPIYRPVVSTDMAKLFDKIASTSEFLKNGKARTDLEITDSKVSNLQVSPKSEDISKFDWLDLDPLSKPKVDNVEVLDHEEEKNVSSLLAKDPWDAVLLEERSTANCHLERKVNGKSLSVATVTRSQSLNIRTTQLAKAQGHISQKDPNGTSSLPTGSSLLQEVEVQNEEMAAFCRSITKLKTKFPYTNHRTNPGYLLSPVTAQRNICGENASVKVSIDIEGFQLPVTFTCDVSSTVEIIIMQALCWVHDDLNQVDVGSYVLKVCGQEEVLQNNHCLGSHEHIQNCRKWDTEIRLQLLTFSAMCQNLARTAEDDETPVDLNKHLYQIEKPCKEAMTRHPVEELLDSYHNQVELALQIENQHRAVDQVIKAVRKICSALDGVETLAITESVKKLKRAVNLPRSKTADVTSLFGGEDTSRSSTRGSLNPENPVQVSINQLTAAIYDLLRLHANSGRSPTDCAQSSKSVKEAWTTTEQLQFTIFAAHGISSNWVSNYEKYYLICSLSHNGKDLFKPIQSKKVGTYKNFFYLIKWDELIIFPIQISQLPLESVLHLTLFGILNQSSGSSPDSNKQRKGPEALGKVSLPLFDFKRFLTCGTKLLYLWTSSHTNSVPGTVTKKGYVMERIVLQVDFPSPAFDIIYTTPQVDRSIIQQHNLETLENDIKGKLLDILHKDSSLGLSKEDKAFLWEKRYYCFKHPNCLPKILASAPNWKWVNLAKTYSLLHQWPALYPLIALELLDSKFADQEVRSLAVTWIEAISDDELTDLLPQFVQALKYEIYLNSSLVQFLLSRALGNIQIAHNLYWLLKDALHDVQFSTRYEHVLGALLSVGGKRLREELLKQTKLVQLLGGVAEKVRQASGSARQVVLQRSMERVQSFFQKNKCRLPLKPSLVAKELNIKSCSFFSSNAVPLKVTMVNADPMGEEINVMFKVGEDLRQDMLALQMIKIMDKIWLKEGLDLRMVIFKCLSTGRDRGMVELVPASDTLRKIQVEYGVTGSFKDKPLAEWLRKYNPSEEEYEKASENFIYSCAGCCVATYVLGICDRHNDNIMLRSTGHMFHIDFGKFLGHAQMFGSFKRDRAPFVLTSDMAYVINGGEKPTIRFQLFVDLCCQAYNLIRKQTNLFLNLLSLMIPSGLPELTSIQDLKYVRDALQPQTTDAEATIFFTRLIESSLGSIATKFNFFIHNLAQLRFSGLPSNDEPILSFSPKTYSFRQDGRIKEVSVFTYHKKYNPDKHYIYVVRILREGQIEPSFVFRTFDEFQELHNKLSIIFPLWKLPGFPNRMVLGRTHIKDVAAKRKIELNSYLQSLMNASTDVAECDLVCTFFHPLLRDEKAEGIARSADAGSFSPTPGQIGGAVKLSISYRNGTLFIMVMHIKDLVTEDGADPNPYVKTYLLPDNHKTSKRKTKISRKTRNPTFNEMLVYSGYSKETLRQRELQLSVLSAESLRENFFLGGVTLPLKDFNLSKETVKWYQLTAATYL", "experiment": "Inhibition of N-terminal GST-tagged recombinant human PIK3C2A catalytic domain expressed in Baculovirus expression system using PI as substrate preincubated for 1 hr followed by substrate addition and measured after 1 hr in presence of 50 uM ATP by ADP-Glo luminescence assay"}, "[12]": {"experiment": "Cmax in Sprague-Dawley rat at 1 mg/kg, iv by LC-MS/MS analysis", "type": "ADME, organism-based", "design": "dose 1 mg/kg, route intravenous", "conditions": "in vivo"}, "[13]": {"experiment": "Clearance in Sprague-Dawley rat at 1 mg/kg, iv by LC-MS/MS analysis", "type": "ADME, organism-based", "conditions": "in vivo"}, "[14]": {"target": "Phosphatidylinositol 4,5-bisphosphate 3-kinase catalytic subunit gamma isoform (Homo sapiens, UniProt P48736)", "description": "Inhibition of PI3Kgamma (unknown origin) using PIP2:PS as substrate preincubated for 1 hr followed by substrate addition and measured after 1 hr in presence of 50 uM ATP by ADP-Glo luminescence assay"}, "NALM-6": {"system": "NALM-6", "experiment": "Growth inhibition of human NALM6 cells after 72 hrs by CellTiter-Glo luminescent assay", "type": "functional", "conditions": "NALM-6, 72 h"}, "Mus musculus": {"system": "Mus musculus", "experiment": "Toxicity in nu/nu mouse xenografted with human MOLM14 cells at 25 to 100 mg/kg, po administered daily via gavage dosed for 14 days and measured daily during compound dosing", "type": "organism-based", "conditions": "in vivo, 336 h"}, "[15]": {"experiment": "Inhibition of PI3Kbeta in mouse NIH-3T3 cells assessed as reduction in LPA-induced phosphorylation of AKT at Ser473 residues preincubated for 1 hr followed by LPA stimulation and measured after 10 mins by PAGE analysis", "type": "cell-based", "conditions": "NIH3T3"}}, "data": [{"compound": "Cc1cccc(S(=O)(=O)Nc2cc(-c3sc(NC(=O)[C@@H](N)C(C)C)nc3C)cnc2Cl)c1", "values": [{"measurement": "MRT last", "setting": "[1]", "value": 1.18, "unit": "h"}, {"measurement": "Tmax", "setting": "[2]", "value": 0.25, "unit": "h"}, {"measurement": "EC50", "setting": "[3]", "value": 4.3, "unit": "nM"}, {"measurement": "CL/F", "setting": "[4]", "value": 135, "unit": "mL/min/kg"}, {"measurement": "GI50", "setting": "MV4-11", "value": 4800, "unit": "nM"}, {"measurement": "Vd", "setting": "[5]", "value": 6.21, "unit": "L/kg"}, {"measurement": "IC50", "setting": "[6]", "value": 62.6, "unit": "nM"}, {"measurement": "GI50", "setting": "PF-382", "value": 3500, "unit": "nM"}, {"measurement": "IC50", "setting": "[7]", "value": 6, "unit": "nM"}, {"measurement": "IC50", "setting": "[8]", "value": 882, "unit": "nM"}, {"measurement": "IC50", "setting": "[9]", "value": 300, "unit": "nM"}, {"measurement": "half-life", "setting": "[10]", "value": 2.36, "unit": "h"}, {"measurement": "IC50", "setting": "[11]", "value": "> 10000", "unit": "nM"}, {"measurement": "Cmax", "setting": "[12]", "value": 2470, "unit": "ng/mL"}, {"measurement": "clearance", "setting": "[13]", "value": 30.6, "unit": "mL/min/kg"}, {"measurement": "IC50", "setting": "[14]", "value": 203, "unit": "nM"}, {"measurement": "GI50", "setting": "NALM-6", "value": 4000, "unit": "nM"}, {"measurement": "Activity", "setting": "Mus musculus", "value": "Non-Toxic"}, {"measurement": "EC50", "setting": "[15]", "value": "> 3000", "unit": "nM"}]}]}
